Like-named read-outs stand apart in the source and are kept apart here. *1 amine or outer side, *2 acyl side, *3 side chain or, on linkers, in order; H or OH if unused. Where a SMILES comes first, the peptide text is derived from it. Bridges are numbered along the chain shown (N, C = ends). Roman numbers before positions name the chains, in order. [ ]: non-standard residue; d: D form. Actinocin(9to1) = Cc1c2oc3c(C)ccc(C(=O)[*:1])c3nc-2c(C(=O)[*:2])c(N)c1=O; NMeV = CN[CH](C(=O)O)C(C)C; Sar = CNCC(=O)O
What was measured:
[1] = Rate of release of BP^+ from MLVs at pH 7.4; type: physicochemical
Method: A further preparation of liposomal BP^+ pH 6.5 prepared as described above was inserted into a dialysis bag (5 ml containing 353.25 mg EPC and 25 mg BP^+). The bag was immersed in 145 ml PBS pH 7.4 with a renewal rate of 23 ml/hour. Samples of the pH 7.4 medium were harvested at different times and the concentration of bupivacaine was measured by UV spectrophotometry.

[2] = cited from earlier work; for animal or human results of liposome association: lipid-layer encapsulated
[3] = not told
[4] = Entrapment of BP^+ into MLVs; type: physicochemical; conditions: for encapsulation efficiency: EPC/BP^+ 6, pH 6.5
Method: The bupivacaine concentration was measured by UV spectrophotometry at 271.6 nm. After extraction of BP^+ in chloroform with EPC, 27.5 mg of cholesterol were added thereto. After evaporation of the organic solvent under an inert atmosphere and drying of the lipid film, hydration was carried out at pH 6.5. The encapsulation efficiency was measured by UV spectrophotometry at 271.6 nm.

[5] = Crystals in liposomal BP^0 formulations; type: physicochemical
Method: These films were hydrated by 1 ml buffer at pH 8.1 and suspended as MLVs with bupivacaine crystals inside and outside the phospholipid […] by freeze-etching electron microscopy. […] This film was suspended as MLVs in 1 ml buffer pH 8.1. […] No crystals were detected from the ratio 17 and above (Table VII).

[6] = Release of bupivacaine from the liposomal BP^0 formulation at pH 7.4; type: physicochemical
[7] = cited from earlier work
[8] = cited from earlier work; remark: listed apart in the source
[9] = pH 7.8
[10] = not given; remark: listed apart in the source
[11] = cited from earlier work; remark: listed apart in the source
[12] = cited from earlier work; remark: listed apart in the source
[13] = Entrapment of MP^+ into MLVs; type: physicochemical; conditions: EPC/morphine 98, pH 4.5, n=5, referred to 1 mg initially dissolved
[14] = pH 7.4, 37° C.
[15] = MP^0 release from MLVs (dialysis bag, PBS pH 7.4); type: physicochemical
[16] = test system: bacteria; conditions: References 30-33; listed as oxine; cited from earlier work
[17] = 10 ml PBS pH 7.4
[18] = EPC/oxine 4.8, pH 7.4
[19] = Cell membrane permeation predicted by TAMMO combined with liposomal entrapment and release assays; conditions: concluded from TAMMO and liposome assays
[20] = Release of tin(II) dioxinate from MLVs at pH 7.4; type: physicochemical
[21] = not given; remark: listed apart in the source
[22] = Entrapment of tin(II) dioxinate into MLVs; type: physicochemical
Method: Egg yolk phosphatidylcholine (14.4 mg, 18.3 μmol) and cholesterol (5.6 mg, 13.7 μmol) were dissolved in chloroform with 0.1, 0.2, 0.3, 0.4, 0.5 mg (1.2 μmol) and 0.6 mg tin(II) dioxinate. After evaporation of the solvent, hydration occurred with NaCl 150 mM 1 ml. The MLVs thus prepared were washed 5 times in order to discard free tin(II) dioxinate.
The number of tin(II) dioxinate molecules inserted into liposomes increased with the number of SnOx2 molecules present in the preliposomal lipid film. Liposomal saturation occurred for a number of moles averaging 1.23 μmoles SnOx2 inserted into 18.3 μmoles EPC (EPC/SnOx2 mole ratio of 15) with an encapsulation efficiency of 30% for MLVs.

[23] = formulation with crystals, pH 7.4

CCCCN1CCCCC1C(=O)Nc1c(C)cccc1C (centres unmarked) [BP^0]
duration of release ([1]; 1 ml formulation, pH 7.4): 24 to 48 h
time to maximal concentration ([1]; 1 ml formulation, pH 7.4): 6 to 12 h
duration of release ([1]; 5 ml formulation in dialysis bag, pH 7.4): 72 h
rapid transfer of unencapsulated bupivacaine ([1]; 6 hour, 5 ml in dialysis bag, pH 7.4): 25%
Release ([1]; Table III, PL/X 5): 72 h
sensory block ([2]; BP^+ in liposomal aqueous phase, Reference 13): prolongation of the sensory block
motor block ([2]; BP^+ in liposomal aqueous phase, Reference 29): outlasted the analgesic action
ability to cross cell membranes [3]: able to cross cell membranes
AE (encapsulation efficiency) ([4]; Table III, PL/X 5): 75%
encapsulation efficiency ([4]; after 2 hours): 60±1%
encapsulation efficiency ([4]; after 24 hours): 74±0.5%
BP^+ inserted into MLVs ([4]; from 5 mg BP^+, 70.65 mg EPC): 3.7 mg
Crystals ([5]; EPC/BP ratio 17 and above): No crystals
Crystals ([5]; EPC/BP ratio up to 16): presence of bupivacaine crystals
Crystals ([5]; EPC/BP^0 ratio 13 or above): without crystals
Crystals ([5]; EPC/BP^0 ratio 17): 0
Crystals ([5]; EPC/BP^0 ratio 20): 0
Crystals ([5]; EPC/BP^0 ratio 22): 0
Crystals ([5]; EPC/BP^0 ratio 25): 0
Release ([6]; Table III, PL/X 5): 24 to 48 h
release compared with crystal-containing formulation ([6]; crystal-free): slower
peak concentration ([6]; crystal-free, 230.56 mg EPC, 5 mg BP^0, pH 7.4): 5 to 8 µg/mL
time to complete clearance ([6]; crystal-free, pH 7.4): 3 days
time to peak ([6]; crystal-free, pH 7.4): 6 h
maximal concentration ([6]; formulation with crystals, 14.4 mg EPC, 5 mg BP^0, pH 7.4, 37° C.): 7 to 8 µg/mL
time to maximal concentration [6, 23]: 6 to 12 h
time to release of the whole amount [6, 23]: 2 days

CCCCN1CCCCC1C(=O)Nc1c(C)cccc1C (centres unmarked) [Bupivacaine, bupivacaine]
Log Poct ([7]; Table II): 1.4
Log Poct ([7]; Table III): 3.6
log of the partition coefficient between water and octanol ([7]; clonidine: octanol/buffer pH 7.4): 1.8
animal or human results of liposome association [2]: promising animal or effective human results
plasma level at which systemic toxicity becomes apparent ([8]; human, in vivo): ~1600 ng/mL
therapeutic concentration ([8]; human, in vivo): 1 µg/mL
duration of analgesic action ([8]; peripheral nerve blocks): up to 12 hours

Clc1cccc(Cl)c1NC1=NCCN1 [CL^0]
Release (Table III, PL/X 5): 0.5 h
proportion of species [9]: 28.5%
proportion of species ([9]; listed as CL^+): 71.5%
AE (encapsulation efficiency) ([10]; Table III, PL/X 5): 14.5%

CCN(CC)CCOC(=O)c1ccc(N)cc1Cl [Chlorprocaine, chlorprocaine]
Log Poct ([7]; Table II): -0.8

Clc1cccc(Cl)c1N=C1NCCN1 [Clonidine, clonidine]
Log Poct ([7]; octanol/water): 1.59
leakage from vesicles after 1 hour (pH 7.4, after 1 hour): Almost all
solubility in organic solvents [11]: soluble in octanol when uncharged
solubility in aqueous medium ([11]; water or acidic solution): highly soluble in acidic solution as a cation
duration of hypotensive action ([8]; human, in vivo): 1 days
pK / pKa [12]: 8.2
encapsulation efficiency ([10]; 14.4 mg EPC, 0.5 mg CL^0, pH 7.8, n=6): 14.5%±0.4

CCCN(CC)C(CC)C(=O)Nc1c(C)cccc1C (centres unmarked) [Etidocaine, etidocaine]
Log Poct ([7]; octanol/water): 2.1

CN1CC[C@]23c4c5ccc(O)c4O[C@H]2[C@@H](O)C=C[C@H]3[C@H]1C5 [MP^0]
encapsulation [13]: 31.2±2.1%
duration of slow decrease of concentration [14]: 3 days
time to maximal concentration [14]: 1 h
crystals in the dialysis bag at the end of release ([15]; EPC/MP^0 10): No crystals
Release ([15]; EPC/MP^0 10, 26 and 52): sustained and prolonged
duration of release ([15]; EPC/MP^0 10, pH 7.4): 48 h
duration of release ([15]; EPC/MP^0 26, pH 7.4): 30 h
duration of release ([15]; EPC/MP^0 52, pH 7.4): 24 h
Release ([15]; Table III, PL/X 10): 48 h
Release ([15]; Table III, PL/X 26): 30 h
Release ([15]; Table III, PL/X 52): 24 h

CCOC(=O)C1(c2ccccc2)CCN(C)CC1 [Meperidine, meperidine]
Log Poct ([7]; octanol/water): 1.3

Cc1cccc(C)c1NC(=O)C1CCCCN1C (centres unmarked) [Mepivacaine, mepivacaine]
Log Poct ([7]; octanol/water): -0.1
pKs ([12]; Table II): 7.76

CN1CC[C@]23c4c5ccc(O)c4O[C@H]2[C@@H](O)C=C[C@H]3[C@H]1C5 [Morphine, morphine]
duration of action ([8]; intramuscular, epidural or intrathecal): ≥ 12 h

Oc1cccc2cccnc12 [Oxine, 8-hydroxyquinoline]
partition coefficient octanol/water ([7]; not logarithmic): 67
bactericidal activity (words) [16]: acts as a bactericidal agent by crossing the bacterial cell membrane
time of release of a bulk of the liposomal compound [17]: 20 min
oxine entrapped in MLVs [18]: 50%
oxine entrapped in MLVs ([18]; from 0.7 mg): 0.35 mg

CCCNC(C)C(=O)Nc1ccccc1C (centres unmarked) [Prilocaine, prilocaine]
Log Poct ([7]; Table II): -0.05

CCN(CC)CCOC(=O)c1ccc(N)cc1 [Procaine, procaine]
Log Poct ([7]; octanol/water): -1.7

CCCCNc1ccc(C(=O)OCCN(C)C)cc1 [Tetracaine, tetracaine]
Log Poct ([7]; octanol/water): 0.6

Cc1c2oc3c(C)ccc(C(=O)NC4C(=O)NC(C(C)C)C(=O)N5CCCC5C(=O)N(C)CC(=O)N(C)C(C(C)C)C(=O)OC4C)c3nc-2c(C(=O)NC2C(=O)NC(C(C)C)C(=O)N3CCCC3C(=O)N(C)CC(=O)N(C)C(C(C)C)C(=O)OC2C)c(N)c1=O (centres unmarked) [actinomycin D] (I: TVP[Sar][NMeV] / II: TVP[Sar][NMeV]; ester I:1-I:C, II:1-II:C; linker I:N-II:N via Actinocin(9to1); configuration not given here)
animal or human results of liposome association [2]: promising animal or effective human results

tin(II) dioxinate
ability to cross cell membranes [19]: unable to cross the cell membrane
Release ([20]; Table III, PL/X 6): > 72 h
Release ([20]; pH 7.4, for at least one week): no release
limit of solubility in chloroform ([21]; chloroform): 400 µM
limit of solubility in chloroform ([21]; chloroform with epc): 4100 µM
SnOx2 inserted at liposomal saturation ([22]; 18.3 μmoles EPC): ~1.23 µmol
EPC/SnOx2 mole ratio at saturation ([22]; MLVs): 15
encapsulation efficiency ([22]; MLVs, EPC/SnOx2 15): 30%
AE (encapsulation efficiency) ([22]; Table III, PL/X 6): 30%
